What was measured:
Format in all cases: in vivo, human
[1] = test system: adults with OSA and excessive sleepiness; experiment: Epworth Sleepiness Scale (ESS), phase 3 randomized withdrawal study in OSA; conditions: for ESS score after 4 weeks of APC treatment: randomized patients, mITT
Description: The ESS is a subjective sleepiness test that is well known in the art and routinely used to measure the sleepiness level of a subject. The scale is intended to measure daytime sleepiness through the use of a short questionnaire that asks the subject to rate his or her probability of falling asleep on a scale of increasing probability from 0 to 3 for eight different situations that most people engage in during their daily lives. The scores for the eight questions are added together to obtain a single number that estimates the subject's average sleep propensity (ASP). A number in the 0-10 range is considered to be normal while 11-12 indicates mild excessive sleepiness, 13-15 indicates moderate excessive sleepiness, and 16 or higher indicates severe excessive sleepiness. Narcolepsy patients have an average score of about 17. Obstructive sleep apnea (OSA) patients with excessive sleepiness have an average score of about 15.
(§1) The study was a double-blind, placebo-controlled, enriched, randomized withdrawal design (FIG. 1). In the Titration Phase (weeks 1-2), patients started on a once-daily dose of APC 75 mg and could be titrated up or down every 3 days to reach a maximum tolerated dose of APC 75, 150, or 300 mg. In the Stable-Dose Phase (weeks 3-4), patients continued to receive the dose that they were titrated to in the Titration Phase for 2 weeks. […]
(§2) Efficacy was based on change from week 4 to 6 on the co-primary endpoints of MWT and ESS and percentage of patients reported as improved on the PGI-C and Clinician Global Impression of Change (CGI-C); assessed on a 7-point scale from 1 (very much improved) to 7 (very much worse).
(§3) MWT and ESS data were analyzed using a mixed-effect model repeated measures (MMRM); PGI-C and CGI-C were evaluated using a chi-square test. […] Safety and tolerability were evaluated based on treatment-emergent adverse events (TEAEs), vital signs, and laboratory values.

[2] = test system: adults with OSA and excessive sleepiness; experiment: Safety and tolerability (TEAEs), phase 3 randomized withdrawal study in OSA
Description: The study was a double-blind, placebo-controlled, enriched, randomized withdrawal design (FIG. 1). In the Titration Phase (weeks 1-2), patients started on a once-daily dose of APC 75 mg and could be titrated up or down every 3 days to reach a maximum tolerated dose of APC 75, 150, or 300 mg. In the Stable-Dose Phase (weeks 3-4), patients continued to receive the dose that they were titrated to in the Titration Phase for 2 weeks. In the Double-Blind Withdrawal Phase (weeks 5-6), patients who reported “much” or “very much” improvement on the Patient Global Impression of Change (PGI-C) scale (Guy W. ECDEU assessment manual for psychopharmacology, revised. US Department of Health, Education, and Welfare publication (ADM 76-338). Rockville, MD: National Institute of Mental Health; 1976), and who had improved on the Maintenance of Wakefulness Test (MWT) and Epworth Sleepiness Scale (ESS) (Johns, Sleep 14(6):540 (1991)) at week 4 were randomized 1:1 to receive the same current dose of JZP-110 or placebo for 2 weeks.
as §3

[3] = test system: adults with OSA and excessive sleepiness; experiment: Maintenance of Wakefulness Test (MWT), phase 3 randomized withdrawal study in OSA; conditions: for MWT mean sleep latency after 4 weeks of APC treatment: randomized patients, mITT, 75, 150 or 300 mg once daily
Description: The MWT is an objective test used to measure how alert a subject is during the day. The test consists of four sleep trials with two hours in between the trials. The first trial is performed 1.5-3 hours after the subject's normal wake-up time. Sensors are placed on the head, face, and chin to detect when the subject is asleep and awake during the test. The subject sits quietly in bed with his or her back and head supported by a pillow and is asked to sit still and look straight ahead while trying to stay awake as long as possible. Each trial lasts 40 minutes or until the subject is asleep for 90 seconds. Between trials, the subject stays out of bed and occupies himself or herself to remain awake. Falling asleep in an average of less than eight minutes is considered abnormal. About 40-60% of subjects with normal sleep stay awake for the entire 40 minutes of all four trials.
as §1, §2, §3

[4] = Randomized Withdrawal Phase, all JZP-110 doses (n = 62)
[5] = Stable-Dose Phase, all JZP-110 doses (n = 157)

NC(=O)OC[C@H](N)Cc1ccccc1 [JZP-110, (R)-2-amino-3-phenylpropyl carbamate]
Mean decrease in ESS score from week 4 to week 6 ([1]; Double-Blind Withdrawal Phase, patients who stayed on APC, P<0.0001 vs switched to placebo): 0.1 | ESS score after 4 weeks of APC treatment ([1]; group decreased from 15.3 at baseline): 6.4 | ESS score after 4 weeks of APC treatment ([1]; group decreased from 16.0 at baseline): 5.9 | Any TEAE, incidence [2, 4]: ρ 18 (29.0) n (%) | Aphthous stomatitis, incidence [2, 4]: ρ 1 (1.6) n (%) | Cough, incidence [2, 4]: ρ 1 (1.6) n (%) | Nasopharyngitis, incidence [2, 4]: ρ 3 (4.8) n (%) | Serious TEAEs, incidence [2, 4]: ρ 0 n (%) | TEAEs leading to withdrawal, incidence [2, 4]: ρ 0 n (%) | Upper respiratory tract infection, incidence [2, 4]: ρ 1 (1.6) n (%) | Diarrhea, incidence [2, 5]: ρ 0 n | Dyspepsia, incidence [2, 5]: ρ 0 n | Serious TEAE, incidence [2, 5]: ρ 0 n | TEAE leading to withdrawal, incidence [2, 5]: ρ 0 n | Any TEAE, incidence ([2]; Stable-Dose Phase, all JZP-110 doses (n = 157), listed as APC): 10.2% | Serious TEAE, incidence ([2]; Titration Phase, all JZP-110 doses (n = 174)): ρ 0 n | Any TEAE, incidence ([2]; Titration Phase, all JZP-110 doses (n = 174), listed as APC): 48.9% | Rebound hypersomnia or withdrawal effects after abrupt discontinuation ([2]; placebo group in the Randomized Withdrawal Phase): no evidence of rebound hypersomnia or withdrawal effects | Serious TEAEs in the study ([2]; whole study): no serious TEAEs | Change in mean MWT sleep latency from week 4 to week 6 ([3]; Double-Blind Withdrawal Phase, patients who remained on JZP-110, P<0.0001 vs switched to placebo): -1.0 min | MWT mean sleep latency after 4 weeks of APC treatment ([3]; group increased from 12.3 at baseline): 29.0 min | MWT mean sleep latency after 4 weeks of APC treatment ([3]; group increased from 13.1 at baseline): 31.7 min

Source: patent US11865098B1, “Methods and compositions for treating excessive sleepiness” (Axsome Malta Ltd., priority 2017, dated 2024)
